In ChEMBL document CHEMBL1201862, “PubChem BioAssay data set” (2004):
Activity calls are given as the source filed them. Cut-off read from the data, not from the text of the source: actives have a measured IC50 and inactives only a lower limit.

Target: Envelope glycoprotein gp160 (Human immunodeficiency virus 1, UniProt Q6QLK5)
Assay: inhibitors of HIV fusion peptide binding, primary screen, biochemical, uHTS, fluorescence dequenching (AID 1986)

Chain of Envelope glycoprotein gp160 (Q6QLK5 whole entry, the tested form may be a part): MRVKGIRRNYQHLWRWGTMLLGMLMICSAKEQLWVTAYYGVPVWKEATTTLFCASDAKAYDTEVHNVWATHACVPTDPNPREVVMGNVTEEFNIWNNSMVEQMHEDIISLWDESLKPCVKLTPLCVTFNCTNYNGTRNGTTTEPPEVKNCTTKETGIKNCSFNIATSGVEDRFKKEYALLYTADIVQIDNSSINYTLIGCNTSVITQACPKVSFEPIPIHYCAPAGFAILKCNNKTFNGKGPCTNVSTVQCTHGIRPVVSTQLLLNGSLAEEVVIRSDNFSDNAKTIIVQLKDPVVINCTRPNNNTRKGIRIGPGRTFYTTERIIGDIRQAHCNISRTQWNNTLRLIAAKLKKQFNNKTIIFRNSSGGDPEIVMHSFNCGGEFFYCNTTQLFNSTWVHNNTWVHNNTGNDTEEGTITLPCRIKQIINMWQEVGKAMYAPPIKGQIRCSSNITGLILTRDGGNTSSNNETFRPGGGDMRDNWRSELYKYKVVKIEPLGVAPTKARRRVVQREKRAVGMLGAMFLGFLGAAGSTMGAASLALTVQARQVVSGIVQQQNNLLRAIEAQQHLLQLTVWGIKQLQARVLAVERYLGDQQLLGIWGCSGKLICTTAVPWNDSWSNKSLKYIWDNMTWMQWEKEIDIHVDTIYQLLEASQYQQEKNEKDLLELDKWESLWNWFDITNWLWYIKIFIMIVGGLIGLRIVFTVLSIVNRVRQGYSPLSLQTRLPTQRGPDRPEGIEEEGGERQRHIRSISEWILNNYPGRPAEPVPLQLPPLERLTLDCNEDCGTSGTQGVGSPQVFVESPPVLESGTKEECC

COc1ccc(S(=O)(=O)Nc2ccccc2C(=O)Nc2nc(-c3ccc(F)cc3)cs2)cc1OC
IC50: 14.8 µM (active)
